Results on 42 molecules are retold here after patent US20160039825A1 (BIOGEN MA INC., priority 2013, published 2016).

The structures appear in SMILES notation.

The assay concerns the target T1, Human ATX protein (Homo sapiens, UniProt Q13822).
T1 construct: made in house
Put plainly: Autotaxin (ATX) assay, FRET with FS-3 substrate. The assay is classed as biochemical. Conditions: upper bound bins (no greater than 100, 250 or 500 nM); FS-3 2 μM, ATX 1.0 μg/mL. In outline:
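In-house human ATX (1.0 μg/mL final) was preincubated with compound for 30 min at room temperature in Tris buffer pH 7.4 with NaCl, KCl, CaCl2, MgCl2 and 1 mg/mL fatty acid-free BSA. FS-3 (2 μM final) was added and the plate shaken 2 h at room temperature in the dark. Fluorescence was read at ex 485/em 538 nm.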
What is called IC50 is the midpoint of a concentration-inhibition curve. In turn, `CC1(C)CN(C(=O)c2cc3n(n2)CCN(C(=O)OCc2cc(C(F)(F)F)cc(C(F)(F)F)c2)C3)CCN1` [Example 436] came in with an IC50 of at most 100 nM.
In turn, `O=C(OCc1cc(Cl)cc(Cl)c1)N1CCCn2nc(C(=O)N3CCNCC3)cc2C1` [Example 24, 3,5-Dichlorobenzyl 2-(piperazine-1-carbonyl)-7,8-dihydro-4H-pyrazolo[1,5-a][1,4]diazepine-5(6H)-carboxylate] displayed an IC50 of at most 100 nM.
As for `O=C(OCc1cc(Cl)cc(C(F)(F)F)c1)N1CCn2nc(NC3CCNCC3)cc2C1` [Example 274, 3-chloro-5-(trifluoromethyl)benzyl 2-(piperidin-4-ylamino)-6,7-dihydropyrazolo[1,5-a]pyrazine-5(4H)-carboxylate], the IC50 was at most 100 nM.
As for `C[C@H]1CNC[C@H](C)N1C(=O)c1cc2n(n1)CCCN(C(=O)OCc1cc(Cl)cc(C(F)(F)F)c1)C2` [Example 160], the figure is at most 100 nM; as for `O=C(OCc1cc(C(F)(F)F)cc(C(F)(F)F)c1)N1CCCn2nc(N3CCN(CCO)CC3)cc2C1` [Example 358], at most 100 nM; as for `O=C(OCc1cc(Cl)cc(Cl)c1)N1CCn2cc(C(F)(F)F)nc2C1` [Example 131, 3,5-Dichlorobenzyl 2-(trifluoromethyl)-5,6-dihydroimidazo[1,2-a]pyrazine-7(8H)-carboxylate], at most 500 nM.
As for `O=C(OCc1cc(C(F)(F)F)cc(C(F)(F)F)c1)N1CCn2nc(C(=O)N3CCC3)cc2C1` [Example 485], the IC50 was at most 100 nM.
Turning to `O=C(O)c1cc2n(n1)CCCN(C(=O)CNc1cc(C(F)(F)F)cc(C(F)(F)F)c1)C2` [Example 116, 5-(2-((3,5-Bis(trifluoromethyl)phenyl)amino)acetyl)-5,6,7,8-tetrahydro-4H-pyrazolo[1,5-a][1,4]diazepine-2-carboxylic acid], the IC50 is at most 500 nM.
In turn, `CCOC(=O)c1cc2n(n1)CCCN(C(=O)OCc1cc(C)cc(C(F)(F)F)c1)C2` [Example 105, 2-Ethyl 5-(3-methyl-5-(trifluoromethyl)benzyl) 7,8-dihydro-4H-pyrazolo[1,5-a][1,4]diazepine-2,5(6H)-dicarboxylate] registered an IC50 of at most 100 nM.
Turning to `CN1C2CCC1CN(C(=O)c1cc3n(c1)CCCN(C(=O)OCc1cc(Cl)cc(C(F)(F)F)c1)C3)C2` [Example 278, 3-chloro-5-(trifluoromethyl)benzyl 8-(8-methyl-3,8-diazabicyclo[3.2.1]octane-3-carbonyl)-4,5-dihydro-1H-pyrrolo[1,2-a][1,4]diazepine-2(3H)-carboxylate], the IC50 was at most 100 nM.
As for `CN1CCN(c2cc3n(n2)CCCN(C(=O)OCc2cc(C(F)(F)F)cc(C(F)(F)F)c2)C3)CC1` [Example 338, 3,5-bis(trifluoromethyl)benzyl 2-(4-methylpiperazin-1-yl)-7,8-dihydro-4H-pyrazolo[1,5-a][1,4]diazepine-5(6H)-carboxylate], the figure is at most 100 nM.
For `N#CC1CN(C(=O)c2cc3n(n2)CCCN(C(=O)OCc2cc(Cl)cc(C(F)(F)F)c2)C3)CCN1` (stereo not drawn) [Example 171], the IC50 was at most 100 nM.
The figure for `CC(C)N1CCN(c2cc3n(n2)CCCN(C(=O)OCc2cc(C(F)(F)F)cc(C(F)(F)F)c2)C3)CC1` [Example 356] is at most 100 nM; for `CC1(C)COCCN1CC(=O)c1cc2n(n1)CCCN(C(=O)OCc1cc(Cl)cc(C(F)(F)F)c1)C2` [Example 267] it is at most 100 nM; for `CN1CCN(C(=O)c2cc3n(c2)CCCN(C(=O)OCc2cc(Cl)cc(C(F)(F)F)c2)C3)CC1` [Example 277, 3-chloro-5-(trifluoromethyl)benzyl 8-(4-methylpiperazine-1-carbonyl)-4,5-dihydro-1H-pyrrolo[1,2-a][1,4]diazepine-2(3H)-carboxylate] it is at most 100 nM.
In the case of `CN1CCN(Cc2cc3n(n2)CCCN(C(=O)OCc2cc(C(F)(F)F)cc(C(F)(F)F)c2)C3)CC1` [Example 290, 3,5-bis(trifluoromethyl)benzyl 2-((4-methylpiperazin-1-yl)methyl)-7,8-dihydro-4H-pyrazolo[1,5-a][1,4]diazepine-5(6H)-carboxylate], the IC50 is at most 500 nM.
Molecule `O=C(O)C1CNCCN1C(=O)c1cc2n(n1)CCCN(C(=O)OCc1cc(Cl)cc(C(F)(F)F)c1)C2` (stereo not drawn) [Example 226] yielded an IC50 of at most 100 nM.
On to `O=C(OCc1cc(Cl)cc(C(F)(F)F)c1)N1CCCn2nc(C(=O)N3CCNCC34CCCC4)cc2C1` [Example 234], for which the IC50 is at most 100 nM.
As for `CC1CCN(C(=O)c2cc3n(n2)CCN(C(=O)OCc2cc(C(F)(F)F)cc(C(F)(F)F)c2)C3)CC1` [Example 488], the figure is at most 100 nM; as for `CN1CCN(C(=O)c2cc3n(n2)CCCN(C(=O)OCc2cc(Cl)cc(C(F)(F)F)c2)C3)C(C)(C)C1` [Example 176, 3-chloro-5-(trifluoromethyl)benzyl 2-(2,2,4-trimethylpiperazine-1-carbonyl)-7,8-dihydro-4H-pyrazolo[1,5-a][1,4]diazepine-5(6H)-carboxylate], at most 100 nM; as for `O=C(OCc1cc(Cl)cc(C(F)(F)F)c1)N1CCn2nc(C(=O)N3CCNCC3)cc2C1` [Example 434], at most 100 nM.
Molecule `O=C(OCc1cc(C(F)(F)F)cc(C(F)(F)F)c1)N1CCn2nc(C(=O)N3CCC(O)CC3)cc2C1` [Example 490] registered an IC50 of at most 100 nM.
On to `CC1CN(C(=O)c2cc3n(n2)CCCN(C(=O)OCc2cc(C(F)(F)F)cc(C(F)(F)F)c2)C3)CC(C)N1` (stereo not drawn) [Example 223], for which the IC50 is at most 100 nM.
With `O=C(O)C1CC2CCCC(C1)N2C(=O)c1cc2n(n1)CCN(C(=O)OCc1ccc(C(F)(F)F)cc1)C2` (stereo not drawn) [Example 45, 9-(5-(((4-(Trifluoromethyl)benzyl)oxy)carbonyl)-4,5,6,7-tetrahydropyrazolo[1,5-a]pyrazine-2-carbonyl)-9-azabicyclo[3.3.1]nonane-3-carboxylic acid], the IC50 is at most 250 nM.
`O=C(NC1CC1)c1cc2n(n1)CCCN(C(=O)OCc1cc(C(F)(F)F)cc(C(F)(F)F)c1)C2` [Example 503] came in with a 50% inhibitory concentration (IC50) of at most 100 nM.
On to `O=C(OCc1cc(Cl)cc(C(F)(F)F)c1)N1CCCn2nc(C(=O)N3CCCNCC3)cc2C1` [Example 193], for which the concentration for half-maximal inhibition (IC50) was at most 100 nM.
`O=C(O)C1CC2CCCC(C1)N2C(=O)c1cc2n(n1)CCN(C(=O)OCc1cccc(Cl)c1)C2` (stereo not drawn) [Example 42, 9-(5-(((3-chlorobenzyl)oxy)carbonyl)-4,5,6,7-tetrahydropyrazolo[1,5-a]pyrazine-2-carbonyl)-9-azabicyclo[3.3.1]nonane-3-carboxylic acid] yielded an IC50 of at most 500 nM.
Molecule `CC(C)C1CC(Nc2cc3n(n2)CCCN(C(=O)OCc2cc(C(F)(F)F)cc(C(F)(F)F)c2)C3)CCN1` (stereo not drawn) [Example 314] returned a concentration for half-maximal inhibition (IC50) of at most 100 nM.
Turning to `O=C(OCc1cc(Cl)cc(Cl)c1)N1CCCn2nc(C(=O)N3CCC(C(F)(F)F)CC3)cc2C1` [Example 22, 3,5-Dichlorobenzyl 2-(4-(trifluoromethyl)piperidine-1-carbonyl)-7,8-dihydro-4H-pyrazolo[1,5-a][1,4]diazepine-5(6H)-carboxylate], the IC50 is at most 100 nM.
For the molecule `O=C(O)c1nn2c(c1Cl)CN(C(=O)OCc1cc(C(F)(F)F)cc(C(F)(F)F)c1)CCC2` [Example 110, 5-(((3,5-Bis(trifluoromethyl)benzyl)oxy)carbonyl)-3-chloro-5,6,7,8-tetrahydro-4H-pyrazolo[1,5-a][1,4]diazepine-2-carboxylic acid], the half-maximal inhibitory concentration (IC50) is at most 100 nM.
With `CN1CC2CCC1CN2C(=O)c1cc2n(n1)CCCN(C(=O)OCc1cc(C(F)(F)F)cc(C(F)(F)F)c1)C2` (stereo not drawn) [Example 222], the IC50 is at most 100 nM.
Take `CCOC(=O)c1cc2n(n1)CC(O)CN(C(=O)OCc1cc(C(F)(F)F)cc(C(F)(F)F)c1)C2` (stereo not drawn) [Example 409]: the IC50 was at most 100 nM.
Consider `NCCCCNC(=O)c1cc2n(n1)CCCN(C(=O)OCc1cc(C(F)(F)F)cc(C(F)(F)F)c1)C2` [Example 182], for which the IC50 is at most 100 nM.
`CN1CCN(C(=O)c2cc3n(n2)CCCN(C(=O)OCc2cc(C(F)(F)F)cc(C(F)(F)F)c2)C3)CC1` [Example 215] showed an IC50 of at most 100 nM.
As to `NS(=O)(=O)c1cc2n(n1)CCCN(C(=O)OCc1cc(C(F)(F)F)cc(C(F)(F)F)c1)C2` [Example 301, 3,5-bis(trifluoromethyl)benzyl 2-sulfamoyl-7,8-dihydro-4H-pyrazolo[1,5-a][1,4]diazepine-5(6H)-carboxylate], the IC50 was at most 250 nM.
Turning to `CC1CN(CC(=O)c2cc3n(n2)CCCN(C(=O)OCc2cc(Cl)cc(C(F)(F)F)c2)C3)CCO1` (stereo not drawn) [Example 268], the IC50 is at most 100 nM.
The molecule `CC(c1cc2n(n1)CCN(C(=O)OCc1cc(C(F)(F)F)cc(C(F)(F)F)c1)C2)N1CC2CCC(C1)N2C(=O)OC(C)(C)C` (stereo not drawn) [Example 449] yielded an IC50 of at most 100 nM.
The figure for `CC1(C)CNCCN1C(=O)c1cc2n(n1)CCCN(C(=O)OCc1cc(C(F)(F)F)cc(C(F)(F)F)c1)C2` [Example 239] is at most 100 nM; for `O=C(OCc1cc(C(F)(F)F)cc(C(F)(F)F)c1)N1CCn2nc(-c3cccnc3)cc2C1` [Example 496, 3,5-bis(trifluoromethyl)benzyl 2-(pyridin-3-yl)-6,7-dihydropyrazolo[1,5-a]pyrazine-5(4H)-carboxylate] it is at most 100 nM.
On to `O=C(O)C1CC2CCCC(C1)N2C(=O)c1cc2n(n1)CCN(C(=O)OCc1cc(C(F)(F)F)cc(C(F)(F)F)c1)C2` (stereo not drawn) [Example 48, 9-(5-(((3,5-Bis(trifluoromethyl)benzyl)oxy)carbonyl)-4,5,6,7-tetrahydropyrazolo[1,5-a]pyrazine-2-carbonyl)-9-azabicyclo[3.3.1]nonane-3-carboxylic acid], for which the IC50 is at most 100 nM.
Turning to `O=C(OCc1cc(Cl)cc(Cl)c1)N1CCCn2nc(C(=O)N3CCCCC3)cc2C1` [Example 19, 3,5-Dichlorobenzyl 2-(piperidine-1-carbonyl)-7,8-dihydro-4H-pyrazolo[1,5-a][1,4]diazepine-5(6H)-carboxylate], the IC50 was at most 100 nM.
`CC(C)(C)OC(=O)N1CCC=C(c2cc3n(n2)CCN(C(=O)OCc2cc(C(F)(F)F)cc(C(F)(F)F)c2)C3)C1` [Example 498] yielded an IC50 of at most 100 nM.
